In PubChem BioAssay (NCI):
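The compound was tested at five concentrations on cells cultured in 96-well plates, with a 48-hour exposure period. GI50 = concentration required for 50% inhibition of growth. TGI: concentration producing complete growth inhibition.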

Experiments:
Assay in all cases: inhibition of tumour cell growth, NCI panel, 48 h
CAKI-1 renal = tested on: CAKI-1 renal
HCT-15 colon = tested on: HCT-15 colon
COLO 205 colon = tested on: COLO 205 colon
SR leukemia = tested on: SR leukemia
LOX IMVI melanoma = tested on: LOX IMVI melanoma
U251 CNS = tested on: U251 CNS
HCC-2998 colon = tested on: HCC-2998 colon
A498 renal = tested on: A498 renal

Row | SMILES | GI50 (CAKI-1 renal) [nM] | TGI (CAKI-1 renal) [µM] | GI50 (HCT-15 colon) [µM] | TGI (HCT-15 colon) [µM] | GI50 (COLO 205 colon) [nM] | TGI (COLO 205 colon) [µM] | GI50 (SR leukemia) [nM] | TGI (SR leukemia) [µM] | GI50 (LOX IMVI melanoma) [µM] | TGI (LOX IMVI melanoma) [µM] | GI50 (U251 CNS) [µM] | TGI (U251 CNS) [µM] | GI50 (HCC-2998 colon) [µM] | TGI (HCC-2998 colon) [µM] | GI50 (A498 renal) [µM] | TGI (A498 renal) [µM]
1 | COc1ccc(S(=O)(=O)N(C(C)=O)c2ccccc2/C=C/c2cc[n+]([O-])cc2)cc1 | 588 | > 10 | 0.742 | > 10 | 529 | 2.3 | 230 | > 10 | 0.955 | > 10 | 0.504 | > 10 | 2.27 | > 10 | 0.209 | > 2.8
2 | CC(SCc1ccccc1)C(=O)O (configuration not stated) | – | > 100 | – | > 100 | – | > 100 | – | > 100 | – | > 100 | – | > 100 | – | – | – | > 100
3 | CCCCn1c(=O)c(/C=C/C(=O)/C=C/c2cc3ccccc3n(CCCC)c2=O)cc2ccccc21 | 1870 | 3.27 | 1.29 | 2.87 | 1410 | 3.16 | 315 | > 100 | 1.24 | 2.7 | 1.03 | 2.24 | 1.01 | 2.26 | – | –
4 | C[N+](C)=c1ccc2nc3c(cc(NCCCNc4cc5oc6cc(=[N+](C)C)ccc-6nc5c5ccccc45)c4ccccc43)oc-2c1 | 12700 | 35.4 | 1.9 | 6.33 | 1020 | 2.45 | 2580 | > 28.5 | – | – | 2.36 | 5.87 | 1.77 | 3.47 | 19.1 | 46.9
5 | N#Cc1cc(S(=O)(=O)Nc2nc3ccccc3o2)c(SCc2ccccc2)cc1Cl | 24700 | 65.2 | 24.6 | 60.1 | 30600 | > 100 | 76500 | > 100 | 18.7 | 36.5 | 18.9 | 34 | 19 | 34.3 | 21.3 | 43.7
6 | C[C@@H]1CC[C@@]2(NC1)O[C@H]1C[C@H]3[C@@H]4CC[C@H]5C[C@@H](O)CC[C@]5(C)[C@H]4CC[C@]3(C)[C@H]1[C@@H]2C | – | > 100 | – | > 100 | – | > 100 | – | > 100 | – | > 100 | – | > 100 | – | > 100 | – | > 100
7 | NC(Cc1ccccc1)c1nccs1 (configuration not stated) | – | > 100 | – | > 100 | – | > 100 | – | > 100 | – | > 100 | – | > 100 | – | > 100 | – | > 100
8 | O=c1[nH]c(=O)n(C2CC(O)C(CO)O2)cc1C(F)(F)F (configuration not stated) | 1790 | > 100 | 46 | > 100 | 25000 | > 100 | 1020 | > 100 | 0.936 | > 100 | 4.42 | > 100 | 11.3 | > 100 | – | > 92
9 | COc1cc2nccc(Oc3ccc(NC(=O)c4cn(C(C)C)c(=O)n(-c5ccc(F)cc5)c4=O)cc3F)c2cc1OC | 1910 | 6 | > 100 | > 100 | > 100000 | > 100 | > 100000 | > 100 | > 100 | > 100 | > 100 | > 100 | > 100 | > 100 | 1.64 | 6.27
10 | O=c1/c(=N\Nc2ccccc2)c2cccc3ccc4cccc1c4c32 | – | > 100 | – | > 100 | – | > 100 | – | > 100 | – | > 100 | – | > 100 | – | – | – | > 100
11 | CCN(Cc1c(F)cccc1Cl)c1ccc(CO)c(Cl)c1 | 1200 | 17.4 | 10 | 24.7 | 694 | 6.13 | 16500 | 42.7 | 18 | 33.5 | – | 16.6 | 3.27 | 18.3 | < 0.0146 | 0.0457
12 | Cc1ccc(C(=O)NC2CC2)cc1-c1ccc2[nH]ncc2c1 | > 25000 | > 25 | > 25 | > 25 | > 25000 | > 25 | > 25000 | > 25 | > 25 | > 25 | > 25 | > 25 | > 25 | > 25 | > 12.7 | > 25
13 | CN(C)CCCNc1nc2ccccc2c2[nH]c3ccccc3c12 | 1090 | 3.01 | 0.266 | 4.31 | 795 | 10.1 | 616 | 50 | 0.75 | 1.64 | 0.679 | 2.59 | 0.251 | 0.942 | 6.42 | 13.4
14 | CN1CCN(CCCOc2cc(O)c3c(=O)cc(-c4ccccc4)oc3c2)CC1 | 15100 | 33.4 | 4.6 | 16.3 | 15500 | 31.6 | 16900 | 44.6 | 14.1 | 28.4 | 15.1 | 29 | 14.3 | 27.3 | 22 | 43.4
15 | CNC(=O)c1cncc(/C=C/c2ccccc2Cl)c1 | > 25000 | > 25 | > 25 | > 25 | > 25000 | > 25 | > 22900 | > 25 | > 25 | > 25 | > 25 | > 25 | > 25 | > 25 | > 25 | > 25
16 | CN(N)c1nc(N)c(C#N)c(C#N)c1C#N | – | > 10 | – | > 10 | – | > 10 | – | > 10 | – | > 10 | – | > 10 | – | > 10 | – | –
